Target: T1, maize (Zea mays) class I EPSPS variant TIPS (T102I, P106S), pMON70462 (Zea mays, UniProt O24566, P106S/T102I)
T1 construct: pMON70462
T1 sequence (O24566 1-444 T102I/P106S): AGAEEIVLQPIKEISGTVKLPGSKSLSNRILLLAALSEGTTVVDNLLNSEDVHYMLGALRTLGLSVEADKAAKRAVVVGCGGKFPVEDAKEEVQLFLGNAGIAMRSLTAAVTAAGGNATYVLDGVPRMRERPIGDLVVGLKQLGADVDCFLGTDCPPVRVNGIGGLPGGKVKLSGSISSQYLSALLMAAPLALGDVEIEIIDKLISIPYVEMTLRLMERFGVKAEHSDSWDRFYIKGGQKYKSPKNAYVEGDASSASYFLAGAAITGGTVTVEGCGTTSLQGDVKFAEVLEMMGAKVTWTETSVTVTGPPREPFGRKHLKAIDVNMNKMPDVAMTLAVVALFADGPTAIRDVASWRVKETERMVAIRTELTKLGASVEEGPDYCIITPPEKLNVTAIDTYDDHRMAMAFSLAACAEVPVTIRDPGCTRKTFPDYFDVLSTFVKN
Assay: EPSPS steady-state kinetics, TIPS variant
Type: biochemical
Procedure: The wild type and variant EPSPS coding sequences were cloned into a pET-19b base vector (Novagen, Madison, Wis.). The plant (maize) class I EPSPS variants so created were assigned pMON plasmid numbers (Table 2). The variant EPSPS proteins were purified from the E. coli host using the protocols outlined in the pET system manual, 9th edition (Novagen) or by the following method. A single colony or a few microliters from a glycerol stock was inoculated into 4 mL LB medium containing 0.1 mg/mL carbenicillin antibiotic. The culture was incubated with shaking at 37 C for 4 hours. The cultures were stored at 4° C. overnight. The following morning, 1 mL of the overnight culture was used to inoculate 100 mL of fresh LB medium containing 0.1 mg/mL carbenicillin. The cultures were incubated with shaking at 37 C for 4-5 hours, then the cultures were placed at 4° C. for 5-10 minutes. The cultures were then induced with IPTG (1 mM final concentration) and incubated with shaking at 30 C for 4 hours or 20° C. overnight. The cells were harvested by centrifugation at 7000 rpm for 20 minutes at 4° C. The supernatant was removed and the cells were frozen at −70° C. until further use. The proteins were extracted by resuspending the cell pellet in BugBuster reagent (Novagen) using 5 mL reagent per gram of cells. […]

O=C(O)CNCP(=O)(O)O [glyphosate, N-phosphonomethylglycine]
Ki: 58 ± 14 µM

From patent US8436159B2, “Glyphosate resistant class I 5-endolpyruvylshikimate-3-phosphate synthase (EPSPS)” (Monsanto Technology LLC, priority 2003, dated 2013)
